Measured values: patent US10766902B2, “Wee-1 inhibiting pyrazolopyrimidinone compounds” (ALMAC DISCOVERY LIMITED, priority 2016, dated 2020)

How the values were obtained:
Format in all cases: biochemical
Conditions in all cases: tested at 300-350 nM
EGFR (ErbB1) = EGFR (ErbB1) (Homo sapiens (Human), UniProt P00533); test: SelectScreen Kinase Profiling: EGFR (ErbB1)
Description: (§1) Table 4 below highlights the selectivity of a representative compound of the invention, Example 5, against a panel of 50 kinases (assessed using the Invitrogen SelectScreen® Kinase Profiling Service).

PHKG2 = PHKG2 (Homo sapiens (Human), UniProt P15735); test: SelectScreen Kinase Profiling: PHKG2
Description: as §1

CSNK2A1 (CK2 alpha 1) = CSNK2A1 (CK2 alpha 1) (Homo sapiens (Human), UniProt P68400); test: SelectScreen Kinase Profiling: CSNK2A1 (CK2 alpha 1)
Description: as §1

FRAP1 (mTOR) = FRAP1 (mTOR) (Homo sapiens (Human), UniProt P42345); test: SelectScreen Kinase Profiling: FRAP1 (mTOR)
Description: as §1

PLK1 = PLK1 (Homo sapiens (Human), UniProt P53350); test: SelectScreen Kinase Profiling: PLK1
Description: as §1

PRKACA (PKA) = PRKACA (PKA) (Homo sapiens (Human), UniProt P17612); test: SelectScreen Kinase Profiling: PRKACA (PKA)
Description: as §1

IGF1R = IGF1R (Homo sapiens (Human), UniProt P08069); test: SelectScreen Kinase Profiling: IGF1R
Description: as §1

AKT1 (PKB alpha) = AKT1 (PKB alpha) (Homo sapiens (Human), UniProt P31749); test: SelectScreen Kinase Profiling: AKT1 (PKB alpha)
Description: as §1

FGFR1 = FGFR1 (Homo sapiens (Human), UniProt P11362); test: SelectScreen Kinase Profiling: FGFR1
Description: as §1

PDGFRB (PDGFR beta) = PDGFRB (PDGFR beta) (Homo sapiens (Human), UniProt P09619); test: SelectScreen Kinase Profiling: PDGFRB (PDGFR beta)
Description: as §1

KDR (VEGFR2) = KDR (VEGFR2) (Homo sapiens (Human), UniProt P35968); test: SelectScreen Kinase Profiling: KDR (VEGFR2)
Description: as §1

NTRK1 (TRKA) = NTRK1 (TRKA) (Homo sapiens (Human), UniProt P04629); test: SelectScreen Kinase Profiling: NTRK1 (TRKA)
Description: as §1

RPS6KB1 (p70S6K) = RPS6KB1 (p70S6K) (Homo sapiens (Human), UniProt P23443); test: SelectScreen Kinase Profiling: RPS6KB1 (p70S6K)
Description: as §1

SYK = SYK (Homo sapiens (Human), UniProt P43405); test: SelectScreen Kinase Profiling: SYK
Description: as §1

MET (cMet) = MET (cMet) (Homo sapiens (Human), UniProt P08581); test: SelectScreen Kinase Profiling: MET (cMet)
Description: as §1

MARK2 = MARK2 (Homo sapiens (Human), UniProt Q7KZI7); test: SelectScreen Kinase Profiling: MARK2
Description: as §1

RPS6KA3 (RSK2) = RPS6KA3 (RSK2) (Homo sapiens (Human), UniProt P51812); test: SelectScreen Kinase Profiling: RPS6KA3 (RSK2)
Description: as §1

FLT3 = FLT3 (Homo sapiens (Human), UniProt P36888); test: SelectScreen Kinase Profiling: FLT3
Description: as §1

MAPK14 (p38 alpha) = MAPK14 (p38 alpha) (Homo sapiens (Human), UniProt Q16539); test: SelectScreen Kinase Profiling: MAPK14 (p38 alpha)
Description: as §1

GSK3B (GSK3 beta) = GSK3B (GSK3 beta) (Homo sapiens (Human), UniProt P49841); test: SelectScreen Kinase Profiling: GSK3B (GSK3 beta)
Description: as §1

DYRK3 = DYRK3 (Homo sapiens (Human), UniProt O43781); test: SelectScreen Kinase Profiling: DYRK3
Description: as §1

ROCK1 = ROCK1 (Homo sapiens (Human), UniProt Q13464); test: SelectScreen Kinase Profiling: ROCK1
Description: as §1

IKBKB (IKK beta) = IKBKB (IKK beta) (Homo sapiens (Human), UniProt O14920); test: SelectScreen Kinase Profiling: IKBKB (IKK beta)
Description: as §1

MAPK8 (JNK1) = MAPK8 (JNK1) (Homo sapiens (Human), UniProt P45983); test: SelectScreen Kinase Profiling: MAPK8 (JNK1)
Description: as §1

PAK4 = PAK4 (Homo sapiens (Human), UniProt O96013); test: SelectScreen Kinase Profiling: PAK4
Description: as §1

AMPK A1/B1/G1 = AMPK A1/B1/G1 (Homo sapiens (Human), UniProt Q13131); test: SelectScreen Kinase Profiling: AMPK A1/B1/G1
Description: as §1

CHEK1 (CHK1) = CHEK1 (CHK1) (Homo sapiens (Human), UniProt O14757); test: SelectScreen Kinase Profiling: CHEK1 (CHK1)
Description: as §1

SRC = SRC (Homo sapiens (Human), UniProt P12931); test: SelectScreen Kinase Profiling: SRC
Description: as §1

MAP2K1 (MEK1) = MAP2K1 (MEK1) (Homo sapiens (Human), UniProt Q02750); test: SelectScreen Kinase Profiling: MAP2K1 (MEK1)
Description: as §1

KIT = KIT (Homo sapiens (Human), UniProt P10721); test: SelectScreen Kinase Profiling: KIT
Description: as §1

EPHA2 = EPHA2 (Homo sapiens (Human), UniProt P29317); test: SelectScreen Kinase Profiling: EPHA2
Description: as §1

MAP4K4 (HGK) = MAP4K4 (HGK) (Homo sapiens (Human), UniProt O95819); test: SelectScreen Kinase Profiling: MAP4K4 (HGK)
Description: as §1

CSNK1G2 (CK1 gamma 2) = CSNK1G2 (CK1 gamma 2) (Homo sapiens (Human), UniProt P78368); test: SelectScreen Kinase Profiling: CSNK1G2 (CK1 gamma 2)
Description: as §1

BTK = BTK (Homo sapiens (Human), UniProt Q06187); test: SelectScreen Kinase Profiling: BTK
Description: as §1

ERBB2 (HER2) = ERBB2 (HER2) (Homo sapiens (Human), UniProt P04626); test: SelectScreen Kinase Profiling: ERBB2 (HER2)
Description: as §1

MAPK1 (ERK2) = MAPK1 (ERK2) (Homo sapiens (Human), UniProt P28482); test: SelectScreen Kinase Profiling: MAPK1 (ERK2)
Description: as §1

PRKCB1 (PKC beta I) = PRKCB1 (PKC beta I) (Homo sapiens (Human), UniProt P05771); test: SelectScreen Kinase Profiling: PRKCB1 (PKC beta I)
Description: as §1

ACVR1B (ALK4) = ACVR1B (ALK4) (Homo sapiens (Human), UniProt P36896); test: SelectScreen Kinase Profiling: ACVR1B (ALK4)
Description: as §1

ABL1 = ABL1 (Homo sapiens (Human), UniProt P00519); test: SelectScreen Kinase Profiling: ABL1
Description: as §1

JAK3 = JAK3 (Homo sapiens (Human), UniProt P52333); test: SelectScreen Kinase Profiling: JAK3
Description: as §1

IRAK4 = IRAK4 (Homo sapiens (Human), UniProt Q9NWZ3); test: SelectScreen Kinase Profiling: IRAK4
Description: as §1

PIM1 = PIM1 (Homo sapiens (Human), UniProt P11309); test: SelectScreen Kinase Profiling: PIM1
Description: as §1

AURKA (Aurora A) = AURKA (Aurora A) (Homo sapiens (Human), UniProt O14965); test: SelectScreen Kinase Profiling: AURKA (Aurora A)
Description: as §1

CDK1/cyclin B = CDK1/cyclin B (Homo sapiens (Human), UniProt P06493); test: SelectScreen Kinase Profiling: CDK1/cyclin B
Description: as §1

INSR = INSR (Homo sapiens (Human), UniProt P06213); test: SelectScreen Kinase Profiling: INSR
Description: as §1

MAPKAPK2 = MAPKAPK2 (Homo sapiens (Human), UniProt P49137); test: SelectScreen Kinase Profiling: MAPKAPK2
Description: as §1

TEK (Tie2) = TEK (Tie2) (Homo sapiens (Human), UniProt Q02763); test: SelectScreen Kinase Profiling: TEK (Tie2)
Description: as §1

NEK1 = NEK1 (Homo sapiens (Human), UniProt Q96PY6); test: SelectScreen Kinase Profiling: NEK1
Description: as §1

Chain of MAP4K4 (HGK) (O95819 whole entry): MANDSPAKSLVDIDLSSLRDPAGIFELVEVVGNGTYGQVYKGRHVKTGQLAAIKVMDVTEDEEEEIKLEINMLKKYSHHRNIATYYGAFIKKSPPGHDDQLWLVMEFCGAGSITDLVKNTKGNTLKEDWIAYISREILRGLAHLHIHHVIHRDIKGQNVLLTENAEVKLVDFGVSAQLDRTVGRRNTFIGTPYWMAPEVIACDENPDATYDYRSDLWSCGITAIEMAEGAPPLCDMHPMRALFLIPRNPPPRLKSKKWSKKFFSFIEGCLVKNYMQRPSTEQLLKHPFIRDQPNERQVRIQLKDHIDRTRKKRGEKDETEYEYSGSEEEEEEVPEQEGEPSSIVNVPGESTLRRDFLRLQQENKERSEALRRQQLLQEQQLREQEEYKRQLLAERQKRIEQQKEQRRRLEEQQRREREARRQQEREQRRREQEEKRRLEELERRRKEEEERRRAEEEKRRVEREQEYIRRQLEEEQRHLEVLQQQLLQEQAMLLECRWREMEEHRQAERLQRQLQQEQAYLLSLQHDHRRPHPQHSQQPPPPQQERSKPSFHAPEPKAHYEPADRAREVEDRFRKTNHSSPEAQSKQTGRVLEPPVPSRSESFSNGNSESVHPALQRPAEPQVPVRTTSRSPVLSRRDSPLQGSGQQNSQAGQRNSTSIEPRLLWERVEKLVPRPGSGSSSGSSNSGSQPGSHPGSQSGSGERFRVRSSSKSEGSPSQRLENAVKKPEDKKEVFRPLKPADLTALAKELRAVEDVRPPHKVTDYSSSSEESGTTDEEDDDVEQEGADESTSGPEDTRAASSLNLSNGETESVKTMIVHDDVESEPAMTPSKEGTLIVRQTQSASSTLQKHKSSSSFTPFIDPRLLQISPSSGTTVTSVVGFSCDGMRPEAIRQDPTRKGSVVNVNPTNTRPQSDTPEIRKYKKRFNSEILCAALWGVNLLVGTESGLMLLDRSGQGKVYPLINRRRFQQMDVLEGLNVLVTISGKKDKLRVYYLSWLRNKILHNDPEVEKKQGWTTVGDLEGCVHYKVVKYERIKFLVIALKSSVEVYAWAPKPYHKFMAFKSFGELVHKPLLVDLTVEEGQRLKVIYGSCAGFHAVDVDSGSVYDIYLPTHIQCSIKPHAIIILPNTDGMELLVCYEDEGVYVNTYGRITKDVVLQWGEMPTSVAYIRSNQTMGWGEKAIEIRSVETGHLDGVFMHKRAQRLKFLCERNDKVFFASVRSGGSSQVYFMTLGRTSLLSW
Chain of KIT (P10721 26-976): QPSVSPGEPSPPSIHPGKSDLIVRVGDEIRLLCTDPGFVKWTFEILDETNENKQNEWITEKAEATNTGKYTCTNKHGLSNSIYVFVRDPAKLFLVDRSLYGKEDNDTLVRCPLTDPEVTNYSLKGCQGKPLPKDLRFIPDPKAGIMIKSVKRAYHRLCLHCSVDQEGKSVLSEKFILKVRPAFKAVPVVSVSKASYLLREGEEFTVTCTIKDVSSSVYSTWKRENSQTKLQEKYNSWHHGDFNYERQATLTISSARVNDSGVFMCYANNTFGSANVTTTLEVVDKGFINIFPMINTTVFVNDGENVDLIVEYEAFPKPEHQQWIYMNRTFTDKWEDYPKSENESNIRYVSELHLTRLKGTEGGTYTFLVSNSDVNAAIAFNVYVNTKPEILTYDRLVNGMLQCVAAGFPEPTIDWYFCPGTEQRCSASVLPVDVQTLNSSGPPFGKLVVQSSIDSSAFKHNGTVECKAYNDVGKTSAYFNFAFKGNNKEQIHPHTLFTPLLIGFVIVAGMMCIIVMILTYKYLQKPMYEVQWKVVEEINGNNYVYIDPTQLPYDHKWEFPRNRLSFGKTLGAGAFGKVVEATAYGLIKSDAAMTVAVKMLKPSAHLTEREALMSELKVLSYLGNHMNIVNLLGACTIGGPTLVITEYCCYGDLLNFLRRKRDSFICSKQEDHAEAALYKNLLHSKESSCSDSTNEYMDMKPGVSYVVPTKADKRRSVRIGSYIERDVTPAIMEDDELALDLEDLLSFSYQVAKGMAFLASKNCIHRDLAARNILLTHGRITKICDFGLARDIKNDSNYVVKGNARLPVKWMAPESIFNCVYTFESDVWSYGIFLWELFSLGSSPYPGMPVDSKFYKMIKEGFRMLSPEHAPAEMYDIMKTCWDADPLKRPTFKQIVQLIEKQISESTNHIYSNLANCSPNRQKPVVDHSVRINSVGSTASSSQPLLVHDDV
Chain of TEK (Tie2) (Q02763 23-1124): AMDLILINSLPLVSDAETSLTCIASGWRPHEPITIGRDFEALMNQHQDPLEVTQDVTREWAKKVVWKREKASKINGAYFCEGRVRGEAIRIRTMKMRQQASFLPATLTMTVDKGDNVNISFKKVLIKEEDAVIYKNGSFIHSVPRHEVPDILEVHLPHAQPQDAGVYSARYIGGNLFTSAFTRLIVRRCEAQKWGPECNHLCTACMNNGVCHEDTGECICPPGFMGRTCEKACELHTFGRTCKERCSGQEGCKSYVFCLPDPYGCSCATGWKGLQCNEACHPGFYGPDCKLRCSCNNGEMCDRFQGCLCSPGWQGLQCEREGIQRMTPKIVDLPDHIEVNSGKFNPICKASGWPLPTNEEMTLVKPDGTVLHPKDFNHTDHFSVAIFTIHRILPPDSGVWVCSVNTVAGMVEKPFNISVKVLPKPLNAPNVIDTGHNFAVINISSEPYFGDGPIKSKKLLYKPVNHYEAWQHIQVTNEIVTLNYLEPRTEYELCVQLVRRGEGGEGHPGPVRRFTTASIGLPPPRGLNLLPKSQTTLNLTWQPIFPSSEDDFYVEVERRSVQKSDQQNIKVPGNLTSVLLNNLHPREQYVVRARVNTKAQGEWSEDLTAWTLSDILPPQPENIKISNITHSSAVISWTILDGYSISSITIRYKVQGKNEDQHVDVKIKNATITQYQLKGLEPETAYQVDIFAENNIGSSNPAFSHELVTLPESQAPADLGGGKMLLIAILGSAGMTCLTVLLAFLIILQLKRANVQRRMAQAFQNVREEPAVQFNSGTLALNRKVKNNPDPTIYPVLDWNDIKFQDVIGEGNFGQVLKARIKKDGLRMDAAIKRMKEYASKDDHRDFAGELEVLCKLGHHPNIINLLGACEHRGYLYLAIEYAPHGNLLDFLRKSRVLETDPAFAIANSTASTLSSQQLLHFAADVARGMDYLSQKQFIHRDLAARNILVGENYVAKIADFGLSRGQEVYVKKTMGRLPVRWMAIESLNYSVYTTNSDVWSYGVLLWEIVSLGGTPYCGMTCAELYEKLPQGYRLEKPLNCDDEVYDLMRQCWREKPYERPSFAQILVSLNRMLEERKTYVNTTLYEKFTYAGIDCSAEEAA
Chain of EGFR (ErbB1) (P00533 25-1210): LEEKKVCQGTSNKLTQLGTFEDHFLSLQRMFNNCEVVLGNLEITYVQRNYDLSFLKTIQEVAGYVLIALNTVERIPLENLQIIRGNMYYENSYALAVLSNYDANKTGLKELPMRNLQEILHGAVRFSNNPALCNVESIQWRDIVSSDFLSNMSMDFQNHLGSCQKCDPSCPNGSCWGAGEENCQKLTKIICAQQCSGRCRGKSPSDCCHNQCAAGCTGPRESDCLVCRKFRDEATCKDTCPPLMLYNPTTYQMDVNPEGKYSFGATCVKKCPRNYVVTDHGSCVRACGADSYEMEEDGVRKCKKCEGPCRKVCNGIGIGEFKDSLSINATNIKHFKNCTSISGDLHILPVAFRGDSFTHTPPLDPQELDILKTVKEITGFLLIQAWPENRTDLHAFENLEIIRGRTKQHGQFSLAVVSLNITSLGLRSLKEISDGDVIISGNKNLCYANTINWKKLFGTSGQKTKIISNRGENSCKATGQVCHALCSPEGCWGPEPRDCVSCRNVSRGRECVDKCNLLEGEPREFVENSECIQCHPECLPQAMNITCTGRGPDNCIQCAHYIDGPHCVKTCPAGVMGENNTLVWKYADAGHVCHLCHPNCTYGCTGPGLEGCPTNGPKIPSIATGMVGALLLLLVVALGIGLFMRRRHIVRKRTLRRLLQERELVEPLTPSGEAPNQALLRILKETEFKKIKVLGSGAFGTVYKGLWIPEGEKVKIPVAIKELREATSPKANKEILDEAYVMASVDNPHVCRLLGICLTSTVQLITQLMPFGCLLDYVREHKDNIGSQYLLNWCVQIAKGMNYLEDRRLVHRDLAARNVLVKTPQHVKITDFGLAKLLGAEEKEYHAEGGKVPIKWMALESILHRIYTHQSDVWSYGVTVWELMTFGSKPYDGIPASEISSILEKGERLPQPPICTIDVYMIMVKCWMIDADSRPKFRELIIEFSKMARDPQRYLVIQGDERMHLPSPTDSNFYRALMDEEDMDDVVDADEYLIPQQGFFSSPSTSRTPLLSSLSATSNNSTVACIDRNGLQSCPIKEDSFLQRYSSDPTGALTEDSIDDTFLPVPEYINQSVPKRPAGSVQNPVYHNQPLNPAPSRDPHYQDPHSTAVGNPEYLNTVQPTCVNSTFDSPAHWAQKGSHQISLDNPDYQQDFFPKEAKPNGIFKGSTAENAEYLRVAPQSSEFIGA
Chain of PHKG2 (P15735 whole entry): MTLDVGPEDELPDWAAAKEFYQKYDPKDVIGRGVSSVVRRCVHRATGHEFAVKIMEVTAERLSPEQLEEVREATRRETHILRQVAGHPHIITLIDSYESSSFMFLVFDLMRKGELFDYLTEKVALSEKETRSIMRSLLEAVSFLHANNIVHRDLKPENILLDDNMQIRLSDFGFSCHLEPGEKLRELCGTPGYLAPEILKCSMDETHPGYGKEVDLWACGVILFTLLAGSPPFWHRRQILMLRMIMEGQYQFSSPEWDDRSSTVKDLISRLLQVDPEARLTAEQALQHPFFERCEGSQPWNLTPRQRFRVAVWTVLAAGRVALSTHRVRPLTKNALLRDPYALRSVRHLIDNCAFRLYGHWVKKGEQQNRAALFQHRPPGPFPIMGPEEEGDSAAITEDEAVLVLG

C=CCn1c(=O)c2cnc(Nc3ccc(N4CCN(C)CC4)cc3)nc2n1-c1cccc(C(C)(C)O)n1 [reference compound]
inhibition of EGFR (ErbB1) (EGFR (ErbB1)): + (inhibition over 50% (tested at 300-350 nM))
inhibition of PHKG2 (PHKG2): − (inhibition under 50% (tested at 300-350 nM))
inhibition of CSNK2A1 (CK2 alpha 1) (CSNK2A1 (CK2 alpha 1)): − (inhibition under 50% (tested at 300-350 nM))
inhibition of FRAP1 (mTOR) (FRAP1 (mTOR)): − (inhibition under 50% (tested at 300-350 nM))
inhibition of PLK1 (PLK1): − (inhibition under 50% (tested at 300-350 nM))
inhibition of PRKACA (PKA) (PRKACA (PKA)): − (inhibition under 50% (tested at 300-350 nM))
inhibition of IGF1R (IGF1R): − (inhibition under 50% (tested at 300-350 nM))
inhibition of AKT1 (PKB alpha) (AKT1 (PKB alpha)): − (inhibition under 50% (tested at 300-350 nM))
inhibition of FGFR1 (FGFR1): − (inhibition under 50% (tested at 300-350 nM))
inhibition of PDGFRB (PDGFR beta) (PDGFRB (PDGFR beta)): − (inhibition under 50% (tested at 300-350 nM))
inhibition of KDR (VEGFR2) (KDR (VEGFR2)): − (inhibition under 50% (tested at 300-350 nM))
inhibition of NTRK1 (TRKA) (NTRK1 (TRKA)): − (inhibition under 50% (tested at 300-350 nM))
inhibition of RPS6KB1 (p70S6K) (RPS6KB1 (p70S6K)): − (inhibition under 50% (tested at 300-350 nM))
inhibition of SYK (SYK): + (inhibition over 50% (tested at 300-350 nM))
inhibition of MET (cMet) (MET (cMet)): − (inhibition under 50% (tested at 300-350 nM))
inhibition of MARK2 (MARK2): − (inhibition under 50% (tested at 300-350 nM))
inhibition of RPS6KA3 (RSK2) (RPS6KA3 (RSK2)): − (inhibition under 50% (tested at 300-350 nM))
inhibition of FLT3 (FLT3): − (inhibition under 50% (tested at 300-350 nM))
inhibition of MAPK14 (p38 alpha) (MAPK14 (p38 alpha)): − (inhibition under 50% (tested at 300-350 nM))
inhibition of GSK3B (GSK3 beta) (GSK3B (GSK3 beta)): − (inhibition under 50% (tested at 300-350 nM))
inhibition of DYRK3 (DYRK3): − (inhibition under 50% (tested at 300-350 nM))
inhibition of ROCK1 (ROCK1): − (inhibition under 50% (tested at 300-350 nM))
inhibition of IKBKB (IKK beta) (IKBKB (IKK beta)): − (inhibition under 50% (tested at 300-350 nM))
inhibition of MAPK8 (JNK1) (MAPK8 (JNK1)): − (inhibition under 50% (tested at 300-350 nM))
inhibition of PAK4 (PAK4): − (inhibition under 50% (tested at 300-350 nM))
inhibition of AMPK A1/B1/G1 (AMPK A1/B1/G1): − (inhibition under 50% (tested at 300-350 nM))
inhibition of CHEK1 (CHK1) (CHEK1 (CHK1)): − (inhibition under 50% (tested at 300-350 nM))
inhibition of SRC (SRC): + (inhibition over 50% (tested at 300-350 nM))
inhibition of MAP2K1 (MEK1) (MAP2K1 (MEK1)): − (inhibition under 50% (tested at 300-350 nM))
inhibition of KIT (KIT): − (inhibition under 50% (tested at 300-350 nM))
inhibition of EPHA2 (EPHA2): − (inhibition under 50% (tested at 300-350 nM))
inhibition of MAP4K4 (HGK) (MAP4K4 (HGK)): + (inhibition over 50% (tested at 300-350 nM))
inhibition of CSNK1G2 (CK1 gamma 2) (CSNK1G2 (CK1 gamma 2)): − (inhibition under 50% (tested at 300-350 nM))
inhibition of BTK (BTK): − (inhibition under 50% (tested at 300-350 nM))
inhibition of ERBB2 (HER2) (ERBB2 (HER2)): − (inhibition under 50% (tested at 300-350 nM))
inhibition of MAPK1 (ERK2) (MAPK1 (ERK2)): − (inhibition under 50% (tested at 300-350 nM))
inhibition of PRKCB1 (PKC beta I) (PRKCB1 (PKC beta I)): − (inhibition under 50% (tested at 300-350 nM))
inhibition of ACVR1B (ALK4) (ACVR1B (ALK4)): − (inhibition under 50% (tested at 300-350 nM))
inhibition of ABL1 (ABL1): + (inhibition over 50% (tested at 300-350 nM))
inhibition of JAK3 (JAK3): − (inhibition under 50% (tested at 300-350 nM))
inhibition of IRAK4 (IRAK4): − (inhibition under 50% (tested at 300-350 nM))
inhibition of PIM1 (PIM1): − (inhibition under 50% (tested at 300-350 nM))
inhibition of AURKA (Aurora A) (AURKA (Aurora A)): − (inhibition under 50% (tested at 300-350 nM))
inhibition of CDK1/cyclin B (CDK1/cyclin B): − (inhibition under 50% (tested at 300-350 nM))
inhibition of INSR (INSR): − (inhibition under 50% (tested at 300-350 nM))
inhibition of MAPKAPK2 (MAPKAPK2): − (inhibition under 50% (tested at 300-350 nM))
inhibition of TEK (Tie2) (TEK (Tie2)): − (inhibition under 50% (tested at 300-350 nM))
inhibition of NEK1 (NEK1): − (inhibition under 50% (tested at 300-350 nM))
